“And” between values parts separate entries of the source, which are not always exact repeats. Identical values can stand only once. Inconclusive results and toxic doses are left out.

The subject of this experiment is P388 leukemia ip, CD2F1 mice, survival T/C. Kind of experiment: NCI In Vivo Anticancer Drug Screen. Data for tumor model P388 Leukemia (intraperitoneal) in CD2F1 (CDF1) mice. The settings on record: endpoint: median survival time, higher = longer survival. A digest of the protocol: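 Mice carrying the transplanted tumor received test compound or vehicle. Survival was recorded in each group, and the value is the treated-group measurement divided by that of the vehicle-treated control group.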

[1] abbreviates: dose: 25.0 mg/kg/injection, schedule: Q01DX009 (ip), vehicle: saline with Tween-80.
The mark [2] stands for this setting: dose: 50.0 mg/kg/injection, schedule: Q01DX009 (ip), vehicle: saline with Tween-80.
[3] abbreviates: dose: 60.0 mg/kg/injection, schedule: Q01DX005 (ip), vehicle: Klucel (hydroxypropylcellulose) (HPC).
The mark [4] stands for this setting: dose: 120.0 mg/kg/injection, schedule: Q01DX005 (ip), vehicle: Klucel (hydroxypropylcellulose) (HPC).
Setting [5] is: dose: 240.0 mg/kg/injection, schedule: Q01DX005 (ip), vehicle: Klucel (hydroxypropylcellulose) (HPC).
The mark [6] stands for this setting: dose: 50.0 mg/kg/injection, schedule: Q01DX009 (ip), vehicle: Klucel (hydroxypropylcellulose) (HPC).
The mark [7] stands for this setting: dose: 100.0 mg/kg/injection, schedule: Q01DX009 (ip), vehicle: Klucel (hydroxypropylcellulose) (HPC).
[8] abbreviates: dose: 200.0 mg/kg/injection, schedule: Q01DX009 (ip), vehicle: Klucel (hydroxypropylcellulose) (HPC).
Setting [9] is: dose: 50.0 mg/kg/injection, schedule: Q01DX005 (ip), vehicle: saline with Tween-80.
[10] abbreviates: dose: 100.0 mg/kg/injection, schedule: Q01DX005 (ip), vehicle: saline with Tween-80.
Setting [11] is: dose: 200.0 mg/kg/injection, schedule: Q01DX005 (ip), vehicle: saline with Tween-80.
Where [12] appears, read: dose: 100.0 mg/kg/injection, schedule: Q01DX009 (ip), vehicle: saline with Tween-80.
[13] abbreviates: dose: 200.0 mg/kg/injection, schedule: Q01DX009 (ip), vehicle: saline with Tween-80.
The mark [14] stands for this setting: dose: 400.0 mg/kg/injection, schedule: Q01DX009 (ip), vehicle: saline with Tween-80.

Regarding `Nc1nc(N)c2nc(CCc3ccc(C(=O)NC(CCC(=O)O)C(=O)O)cc3)cnc2n1` (centres undefined), the T/C (dose: 1.5 mg/kg/injection, schedule: Q01DX009 (ip), vehicle: sodium bicarbonate) is 171 % of control; the T/C (dose: 1.75 mg/kg/injection, schedule: Q01DX009 (ip), vehicle: sodium bicarbonate) was 204 % of control; the T/C (dose: 2.0 mg/kg/injection, schedule: Q01DX009 (ip), vehicle: sodium bicarbonate) was 214 % of control.
In the case of `C/C(=N/NC(N)=S)C1CCC2C3CCC4CCCCC4(C)C3CC(O)C12C` (centres undefined), the T/C is 101 % of control (dose: 12.5 mg/kg/injection, schedule: Q01DX009 (ip), vehicle: saline with Tween-80); 93 % of control under setting [1]; 92 % of control under setting [2].
Consider `Cc1[nH]nc2oc(=O)c3ccccc3c12`, for which the T/C (dose: 50.0 mg/kg/injection, schedule: Q01DX005 (ip), vehicle: Klucel (hydroxypropylcellulose) (HPC)) is 105 % of control; the T/C (dose: 100.0 mg/kg/injection, schedule: Q01DX005 (ip), vehicle: Klucel (hydroxypropylcellulose) (HPC)) is 102 % of control; the T/C (dose: 200.0 mg/kg/injection, schedule: Q01DX005 (ip), vehicle: Klucel (hydroxypropylcellulose) (HPC)) was 102 % of control.
As to `NC(N)=NN=c1/c(=N\N=C(N)N)c2ccccc2/c1=N/N=C(N)N`, the T/C (dose: 25.0 mg/kg/injection, schedule: Q01DX001 (ip), vehicle: saline) was 99 % of control.
Regarding `Cc1ccc(C(=O)NCCN2CCN3Cc4[nH]c5ccccc5c4CC3C2)cc1` (centres undefined), the T/C is 92 % of control (dose: 100.0 mg/kg/injection, schedule: Q04DX002 (ip), vehicle: saline with Tween-80) and 105 % of control (dose: 200.0 mg/kg/injection, schedule: Q04DX002 (ip), vehicle: saline with Tween-80).
As to `C[Si](C)(C)N=S1(=N[Si](C)(C)C)CCCC1`, the T/C was 109 % of control (dose: 50.0 mg/kg/injection, schedule: Q01DX005 (ip), vehicle: olive oil, sesame oil, peanut oil); 109 % of control (dose: 100.0 mg/kg/injection, schedule: Q01DX005 (ip), vehicle: olive oil, sesame oil, peanut oil); 114 % of control (dose: 200.0 mg/kg/injection, schedule: Q01DX005 (ip), vehicle: olive oil, sesame oil, peanut oil).
Regarding `O=[N+]([O-])c1ccccc1-c1ccc2c(O)c(Cl)c(Cl)c(O)c2n1`, the T/C (dose: 100.0 mg/kg/injection, schedule: Q04DX003 (ip), vehicle: Klucel (hydroxypropylcellulose) (HPC)) is 104 % of control.
With `COc1ccc(C2c3cc4c(cc3OC3(N5CCCC5)CCCCC23)OCO4)c(OC)c1` (centres undefined), the T/C was 87 % of control under setting [3], 90 % of control under setting [4] and 91 % of control under setting [5].
For `CCCCN(CCCC)CCCN(CCCOS(C)(=O)=O)CCCOS(C)(=O)=O`, the T/C (dose: 20.0 mg/kg/injection, schedule: Q01DX009 (ip), vehicle: saline) was 181 % of control and 185 % of control; the T/C (dose: 40.0 mg/kg/injection, schedule: Q01DX009 (ip), vehicle: saline) is 231 % of control and 236 % of control.
As to `O=CNc1cc(NC=O)ncn1`, the T/C is 99 % of control (dose: 15.0 mg/kg/injection, schedule: Q01DX009 (ip), vehicle: saline with Tween-80); 97 % of control (dose: 30.0 mg/kg/injection, schedule: Q01DX009 (ip), vehicle: saline with Tween-80); 103 % of control (dose: 60.0 mg/kg/injection, schedule: Q01DX009 (ip), vehicle: saline with Tween-80).
Consider `CCCNc1ncc(C(=O)O)c(=O)[nH]1`, for which the T/C (dose: 1.56 mg/kg/injection, schedule: Q01DX009 (ip), vehicle: saline with Tween-80) was 104 % of control; the T/C (dose: 3.12 mg/kg/injection, schedule: Q01DX009 (ip), vehicle: saline with Tween-80) is 95 % of control; the T/C (dose: 6.25 mg/kg/injection, schedule: Q01DX009 (ip), vehicle: saline with Tween-80) was 95 % of control.
Regarding `NC(=S)N1N=C(c2cccc([N+](=O)[O-])c2)CCC1=O`, the T/C was 100 % of control (dose: 25.0 mg/kg/injection, schedule: Q04DX003 (ip), vehicle: saline with Tween-80); 103 % of control (dose: 50.0 mg/kg/injection, schedule: Q04DX003 (ip), vehicle: saline with Tween-80); 100 % of control (dose: 100.0 mg/kg/injection, schedule: Q04DX003 (ip), vehicle: saline with Tween-80); 101 % of control (dose: 200.0 mg/kg/injection, schedule: Q04DX003 (ip), vehicle: saline with Tween-80).
Turning to `O=c1c2ccccc2sc2c1c(N(CCO)CCO)cc1ccccc12`, the T/C was 102 % of control (dose: 25.0 mg/kg/injection, schedule: Q01DX005 (ip), vehicle: distilled water + Tween-80); 97 % of control (dose: 50.0 mg/kg/injection, schedule: Q01DX005 (ip), vehicle: distilled water + Tween-80); 92 % of control (dose: 100.0 mg/kg/injection, schedule: Q01DX005 (ip), vehicle: distilled water + Tween-80).
Take `CCOC(=O)C(C)c1nnc(-c2ccc(OC)cc2)[nH]c1=O` (centres undefined): the T/C under setting [6] is 94 % of control, the T/C under setting [7] is 97 % of control and the T/C under setting [8] was 99 % of control.
`S=P(Oc1ccccc1)(N1CCCCN1)N1CCCCN1`: the T/C runs as follows: under setting [3], 97 % of control; under setting [4], 107 % of control; under setting [5], 100 % of control.
Turning to `O=C1CSC(c2cccc(Cl)c2)N1c1nncs1` (centres undefined), the T/C (dose: 60.0 mg/kg/injection, schedule: Q01DX005 (ip), vehicle: saline with Tween-80) was 109 % of control; the T/C (dose: 120.0 mg/kg/injection, schedule: Q01DX005 (ip), vehicle: saline with Tween-80) is 97 % of control; the T/C (dose: 240.0 mg/kg/injection, schedule: Q01DX005 (ip), vehicle: saline with Tween-80) is 98 % of control.
In the case of `OCC(O)C1OC(c2ccco2)OC(CO)C1O` (centres undefined), the T/C was 102 % of control under setting [9], 105 % of control under setting [10] and 105 % of control under setting [11].
`CCC(=O)C(=O)CC1CC(c2ccco2)=Nc2ccccc2S1` (centres undefined): the T/C by setting is: under setting [9], 111 % of control; under setting [10], 113 % of control; under setting [11], 102 % of control.
For `Nc1ccc(-c2nc3ccccc3[nH]2)cc1`, the T/C by setting is: (dose: 50.0 mg/kg/injection, schedule: Q04DX003 (ip), vehicle: saline) 100 % of control; (dose: 100.0 mg/kg/injection, schedule: Q04DX003 (ip), vehicle: saline) 100 % of control; (dose: 200.0 mg/kg/injection, schedule: Q04DX003 (ip), vehicle: saline) 96 % of control.
Consider `CCN(CC)C(=O)Nc1ccc(OCC(O)CNC(C)(C)C)c(C(C)=O)c1` (centres undefined), for which the T/C runs as follows: (dose: 50.0 mg/kg/injection, schedule: Q01DX009 (ip), vehicle: water) 114 % of control; (dose: 100.0 mg/kg/injection, schedule: Q01DX009 (ip), vehicle: water) 102 % of control; (dose: 200.0 mg/kg/injection, schedule: Q01DX009 (ip), vehicle: water) 105 % of control.
In the case of `COc1cccc2c1C(=O)c1c(O)c3c(c(O)c1C2=O)CC(O)CC3OC1CC(N)C(O)C(C)O1` (centres undefined), the T/C runs as follows: (dose: 3.13 mg/kg/injection, schedule: Q01DX009 (ip), vehicle: water) 157 % of control; (dose: 6.25 mg/kg/injection, schedule: Q01DX009 (ip), vehicle: water) 173 % of control.
`CN=C(C#N)c1ccccc1`: the T/C under setting [9] was 100 % of control, the T/C under setting [10] is 98 % of control and the T/C under setting [11] is 99 % of control.
`CCn1c(=O)c2[nH]c(Br)nc2n(CCOC)c1=O`: the T/C under setting [6] was 90 % of control, the T/C under setting [7] was 93 % of control and the T/C under setting [8] was 104 % of control.
With `O=C1CCCCCCCCCCC1Br` (centres undefined), the T/C was 100 % of control under setting [12], 99 % of control under setting [13] and 105 % of control under setting [14].
On to `CC(=O)NC(CC(C)C)C(=O)O` (centres undefined), for which the T/C is, setting by setting: under setting [1], 95 % of control; under setting [2], 86 % of control and 94 % of control; under setting [7], 104 % of control; under setting [12], 100 % of control and 105 % of control; under setting [8], 114 % of control; under setting [13], 118 % of control. Also, the T/C reads like this: (dose: 400.0 mg/kg/injection, schedule: Q01DX009 (ip), vehicle: Klucel (hydroxypropylcellulose) (HPC)) 100 % of control; under setting [14], 105 % of control.

Values taken from PubChem BioAssay AID330 (DTP/NCI, 2004).
